Molecules are shown by their SMILES.

Experiment [1] relates to carbon tetrachloride (CCl4)-treated mice model of human NAFLD, NASH, and hepatic fibrosis. The experiment can be described thus: CCl4-treated mouse model of human NAFLD, NASH and hepatic fibrosis. Type of experiment: in vivo. As to conditions: vs CCl4 vehicle. From the text:
Mouse model generation and treatment. C57Bl/6 mice (6-week-old, males) were purchased from Jackson Laboratories and were housed under specific pathogen-free conditions. All experiment protocols were approved by the Institutional Animal Care and Use Committee (IACUC) of Pleiogenix, or its research partners. The mice were acclimated for a minimum of seven days prior to initiation of treatment (Sanyal A J et al., N Engl J Med, (2010), 362:1675-85). The mice were fed Purina normal chow and drinking water ad libitum during the acclimation period. After acclimation, the mice were randomized based on body weight (bw). A total of 22 mice were used; and treated as described in Table 1. Briefly, on day 0, mice were treated according to Table 4.
Liver fibrosis was induced as previously described (Nesto R W et al., Circulation, (2003), 108:2941-8). Carbon tetrachloride (CCl4), formulated in mineral oil, was administered twice per week i.p. at 1 μl/gram body weight throughout the study duration (8 wks). Indeglitazar was administered daily by oral gavage at 30 mg/kg body weight throughout the study duration (8 wks). Mice were observed daily for clinical signs. Any observations noted outside of the scheduled observations were documented as unscheduled. Assessments included, but were not be limited to, assessment of activity, posture, respiration, emesis, seizure, hydration status, injection site irritation, and overall body condition. The absence or presence of findings were recorded.
Individual body weights were recorded on all animals prior to the initiation of the study and weekly body weights were recorded. Blood was collected and plasma was measured for alanine aminotransferase (ALT) and aspartate aminotransferase (AST) and on weeks 0 (baseline), 4, and wk 8 (terminal). At the end of the study, liver necropsy was performed including weighing and processing for histology, and frozen at −80° C. for the following downstream analyses: Liver histopathology: hematoxyline and eosin (H&E) staining (Kumar P et al., PLOS ONE, (2014), 9:e110405); Sirius Red staining for fibrosis (Nesto R W et al., Circulation, (2003), 108:2941-8). Biochemical markers of human hepatic fibrosis and anti-fibrotic adipokine, adiponectin: hepatic hydroxyproline (Nesto R W et al., Circulation, (2003), 108:2941-8); plasma TGFβ1 (Fischer A H et al., CSH Protoc, (2008), 2008:pdb.prot4986); adiponectin (Guo J C et al., Zhonghua Shi Yan He Lin Chuang Bing Du Xue Za Zhi, (2008), 22:354-7).
[…]

Experiment [2] relates to adiponectin gene expression. Particulars: compared with full PPAR γ-agonists like pioglitazone; cited from earlier work.
Setting [3] is: 30 mg/kg/day oral gavage, 8 wks, male mice.

In the case of `COc1ccc(S(=O)(=O)n2cc(CCC(=O)O)c3cc(OC)ccc32)cc1` [Indeglitazar, 3-[5-methoxy-1-(4-methoxybenzenesulfonyl)-1H-indol-3-yl]-propanoic acid], in experiment [1] (setting [3]), the “effect on liver hydroxyproline” value is recorded as “significantly reduces”, the “effect on plasma TGF-β1” value was “significantly reduces” and the “effect on plasma adiponectin” value was “significantly increases”. In experiment [1] (30 mg/kg/day), the “magnitude of increase of plasma adiponectin” value is listed as “approximately 125%”, the “magnitude of reduction of hydroxyproline” value is recorded as “approximately 25%” and the “magnitude of reduction of plasma TGFβ1” value is given as “approximately 30%”. In addition, the “stimulating adiponectin gene expression” value in experiment [2] is on record as “only partially effective”.

The record behind these values is patent publication US12485106B2, “Methods of treating fibrotic liver diseases or conditions with indeglitazar” (PLEIOGENIX INC., priority 2023, dated 2025).
